Test results published in ChEMBL document CHEMBL1201862, “PubChem BioAssay data set” (2004).
pIC50: −log10 of the molar value. Several values for one entry are separate records, joined by “and”; a condition that tells them apart may be missing. Equal values may be shown once. Activity calls are given as the source filed them.

How the values were obtained:
[1] = PAX5 cellular inhibition readout – cell-based, plate reader, dry powder samples, selectivity assay for PAX8 inhibitor project, dose response (AID 743047); assay type: functional;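 further: HEK293 cells carrying a Pax5 driven CD19 promoter luciferase reporter; potency of inhibitors that lower reporter luminescence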
[2] = OVCAR8 cell viability loss – plate reader, dry powder samples, PAX8 project, dose response (AID 743197); assay type: functional, cell-based; details: OVCAR-8
[3] = inhibitors acting on PAX2 in cells – cell-based, plate reader, dry powder samples, selectivity assay for PAX8 inhibitor project, dose response (AID 743048); assay type: functional;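 further: HEK293 cells carrying a WT1 promoter luciferase reporter driven by expressed Pax2; potency is for inhibition of Pax2 driven reporter signal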
[4] = COV434 cell viability loss – plate reader, dry powder, SA7, cytotoxicity control for PAX8 inhibitor project, dose response (AID 743145); assay type: functional, cell-based
[5] = IGROV1 cell killing – plate reader, dry powder samples, PAX8 inhibitor project, dose response (AID 743043); assay type: functional, cell-based; details: IGROV-1
[6] = PAX8-dependent cell viability loss – plate reader, dry powder, dose response (AID 743049); assay type: functional, cell-based
[7] = target: Paired box protein Pax-8 (Homo sapiens, UniProt Q06710); assay: PAX8 transcriptional activity inhibition in RMG-I – RMG-I cells, luciferase, cherry-pick, dose response (AID 687027); assay type: functional, cell-based;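 further: luciferase reporter driven by Pax8 target thyroperoxidase promoter measured by SteadyGlo luminescence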
[8] = COV362 cell viability loss – plate reader, dry powder, SA12, cytotoxicity control for PAX8 inhibitor project, dose response (AID 743144); assay type: functional, cell-based
[9] = cells
[10] = target: Metabotropic glutamate receptor 3 (Rattus norvegicus, UniProt P31422); assay: inhibitors of rat mGlu3 Galpha15 signaling – TREx293 cells, calcium flux, mGlu3 NAM project, dose response (AID 651840); assay type: functional
[11] = cells; assay type: functional, cell-based
[12] = system: INS1; assay: INS-1E survival protection against cytokine death – cell-based, luminescence, retest, dose response (AID 449756); assay type: functional;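 further: cell death triggered by IL-1 beta plus TNF-alpha plus IFN-gamma mixture; protective hits raise ATP signal compared with cytokine alone wells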
[13] = target: Major prion protein (Homo sapiens, UniProt P04156); assay type: functional, cell-based
[14] = cells; remark: listed apart in the source
[15] = target: Nuclear receptor subfamily 0 group B member 1 (Homo sapiens, UniProt P51843); assay type: functional, cell-based;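 further: HEK293T cells transfected with SF-1 and DAX-1 plus StAR promoter luciferase reporter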
[16] = reduction of Shn3 3'UTR-driven luciferase in osteoblasts – cell-based, Clone20 osteoblasts, firefly luciferase, cherry-picked, dose response (AID 624132); assay type: functional;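 further: firefly luciferase luminescence from reporter carrying the Shn3 3'UTR in osteoblasts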
[17] = Luminescence Cell-Based Dose Retest to Confirm Inhibitors of Cancer Stem Cells. [Related pubchem assays (depositor defined):AID2717, AID2721]; assay type: functional; details: Homo sapiens
[18] = non-specific 3'UTR reporter inhibition in Clone20-Shn3RL – cell-based, Renilla luciferase, cherry-picked, counter-screen for Shn3 inhibitor project, dose response (AID 624133); assay type: functional
[19] = HEK-293T cell viability reduction – luminescence, B-cell screen hits, cytotoxicity control for BCR NF-kB inhibitor project, dose response (AID 489021); assay type: functional, cell-based;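 further: HEK-293T cells carrying an NF-kB luciferase reporter; cells exposed to compound for about 14 hours before viability readout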
[20] = OVCAR-3 cell viability loss – plate reader, dry powder samples, PAX8 inhibitor project, dose response (AID 743044); assay type: functional, cell-based
[21] = A2780 cell killing – plate reader, dry powder samples, cytotoxicity control, dose response (AID 743046); assay type: functional, cell-based
[22] = Late stage assay provider results from the probe development effort to identify inhibitors of the Plasmodium falciparum M18 Aspartyl Aminopeptidase (M18AAP): radiolabel-based cell-based dose response assay to identify compounds that inhibit P. falciparum growth in RBCs, Set 2..; assay type: functional
[23] = TB: CFU replicating Measured in Microorganism System Using Imaging - 7108-05_Inhibitor_Dose_DryPowder_Activity_Set2.; assay type: functional
[24] = inhibition of ADAM10 peptide cleavage – biochemical, FRET peptide substrate, recombinant human ADAM10, selectivity assay for ADAM17 exosite inhibitor project, dose response (AID 743259);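 further: ADAM10 enzyme cleaving a FRET peptide substrate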
[25] = target: Disintegrin and metalloproteinase domain-containing protein 17 (Homo sapiens, UniProt P78536); assay: exosite inhibitors of ADAM17, dose response, biochemical (AID 743260)
[26] = target: Protein disulfide-isomerase (Homo sapiens, UniProt P07237); assay: inhibition of PDI-mediated insulin reduction – biochemical, turbidity, dry powder samples, set 2, confirmation (AID 652146)

In the case of `N#C[C@@H]1[C@@H](c2ccc(C#Cc3ccccc3F)cc2)[C@H](CO)N1C(=O)C1CCCCC1`, the AC50 [1] was 25.8 µM (active), the AC50 [2] was 37.5 µM (active) and the AC50 [3] was 53.3 µM (active). The AC50 [4] was 25 µM (active), the AC50 [5] was 33.4 µM (active) and the AC50 [6] was 28.6 µM (active). The AC50 [7] was 9.74 µM (active) and the AC50 [8] was 32.4 µM (active).

With `CCN(CC)c1ccc2cc(C(N)=O)c(=O)oc2c1` the AC50 [9] was 573 nM (active).

Compound `CCCCC1(O)CCCN(C(=O)c2ccc(C#Cc3ccc(OC)cc3)cc2)C1` (centres undefined) has a pIC50 [10] of 5.53.

In the case of `C[C@H]1CCC/C=C/[C@@H]2C[C@H](O)C[C@H]2[C@H](O)/C=C/C(=O)O1` [BREFELDIN A], the IC50 [11] was > 67.6 µM (inactive), the AC50 ([12]; Rattus norvegicus, INS1) was 1.03 µM (active) and the AC50 ([12]; ins1) was 1.06 µM (active). The IC50 [13] was 3.5 µM (active), the IC50 [14] was > 138 µM (inactive) and the IC50 [15] was 134 nM (active). For the same compound, the AC50 [16] was 3.15 µM (active) and 2.2 µM (active), the AC50 [17] was < 160 nM (active) and the AC50 [18] was 10.3 µM (active). For the same compound, the IC50 [19] was > 80 µM (inactive) and the AC50 [7] was < 0.26 µM (active).

With `CC(C)(C)[S+]([O-])N1Cc2cc(C(=O)NCCCN3CCOCC3)nc(-c3cccc(C#CCC4CCCC4)c3)c2[C@@H]1CCO` (some centres undefined) the AC50 [20] was 40.4 µM (active), the AC50 [21] was 4.02 µM (active) and the AC50 [7] was 24 µM (active).

With `Oc1ccc(CCNc2c3ccccc3nc3ccccc23)cc1` the IC50 [22] was 700 nM (active).

Work on `Cn1c(NC(=O)c2ccccc2F)nc2ccccc21` yielded an AbsAC90 [23] of 128.74 µM.

With `O=C(NCC(c1ccc(F)cc1)N1CCOCC1)c1ccc(Br)o1` (centres undefined) the IC50 [24] was > 69.5 µM (inactive) and the IC50 [25] was > 69.5 µM (inactive).

With `CCOC(=O)C1(Cc2ccccc2)CCN(Cc2ccc(O)c(Cl)c2)CC1` the AC50 [26] was > 30 µM (inactive).
